Laboratory results taken from US20240189266A1, “Lactoyl Amino Acids for the Treatment of Metabolic Disease” (The Board of Trustees of the Leland Stanford Junior …, priority 2021, published 2024).

Experiments:
POMC neurons in the ARH = test: Whole-cell patch-clamp slice electrophysiology, POMC neurons; type: cell-based, mice
Description: Slice electrophysiology studies. Several genetic mouse strains were used for electrophysiological recordings from identified neural populations. These included AgRP-IRES-Cre/Rosa26-LSL-tdTOMATO mice for recordings from AgRP neurons in the arcuate nucleus of hypothalamus (ARH); POMC-CreER/Rosa26-LSL-tdTOMATO mice (with 200 mg/kg tamoxifen induction at 8-12 weeks) were used for recordings from POMC neurons in the ARH; SF1-Cre/Rosa26-LSL-tdTOMATO mice were used for recordings from SF1 neurons in the ventromedial hypothalamus (VMH); TPH2-CreER/Rosa26-LSL-tdTOMATO mice (with 200 mg/kg tamoxifen induction at 8-12 weeks) were used for recording from 5-HT neurons in the dorsal raphe nucleus (DRN). Mice (males and females, 8-16 weeks old) were anesthetized with isoflurane and transcardially perfused with a modified ice-cold sucrose-based cutting solution (pH 7.4; containing 10 mM NaCl, 25 mM NaHCO3, 195 mM sucrose, 5 mM glucose, 2.5 mM KCl, 1.25 mM NaH2PO4, 2 mM sodium pyruvate, 0.5 mM CaCl2, and 7 mM MgCl2, bubbled continuously with 95% O2 and 5% CO2). The mice were then decapitated, and the entire brain was removed and immediately submerged in the cutting solution. […]
(§1) Slices were transferred to the recording chamber at 32° C. and perfused continuously with oxygenated ACSF at a flow rate of 1.8-2.0 ml/min. […] Recordings were made using a MultiClamp 700B amplifier (Axon Instruments), sampled using Digidata 1440A, and analyzed offline with pClamp 10.3 software (Axon Instruments). Series resistance was monitored during the recording, and the values were generally <10 MO and were not compensated. The liquid junction potential was monitored and corrected. […] To ensure each recorded neuron receive same amount of Lac-Phe, the neurons located on the surface of the slice were selected to record and the puff pipette was always put at a 100 μm horizontal and 100 μm vertical distance from the recorded neurons. […] Each neuron was recorded for at least 1 minute at baseline and only the neurons with stable baseline were used to test the Lac-Phe treatment. […]

[1] = Chronic 10-day Lac-Phe administration to DIO mice (food intake, body weight, GTT, tissue weights); type: in vivo
Description: (§2) General animal information. Animal experiments were performed according to procedure approved by the Stanford University Administrative Panel on Laboratory Animal Care (APLAC). Mice were maintained in 12-hr light-dark cycles at 22° C. and ˜50% relative humidity and fed a standard irradiated rodent chow diet. Where indicated, high-fat diet (D12492, Research Diets 60% kcal from fat) was used. C57BL/6J (stock no. 000664) and C57BL/6J DIO mice (stock no. 380050) were purchased from Jackson Laboratory. C57BL/6NCrl (stock no. 027) mice were purchased from Charles River Laboratory. Whole body CNDP2 knockout mice (catalog number, C57BL/6NCrl-Cndp2em1(IMPC)Mbp/Mmucd, RRID: MMRRC_043492-UCD) were obtained from the Mutant Mouse Regional Resource Center, a NCRR-NIH funded strain repository. For in vivo injection of mice with compounds including Lac-Phe, lactate, and phenylalanine, compounds were dissolved in 18:1:1 (by volume) of saline/Kolliphor EL (Sigma Aldrich)/DMSO. Compounds were administered to mice daily via intraperitoneal injections at 5 μl/g body weight at the indicated doses. For all injection experiments, mice were mock injected with the vehicle for 3-5 days until body weights have stabilized. For glucose tolerance tests, mice were fasted for 6 hours then injected with glucose at 10 μl/g body weight. A dose of 1 g/kg was used for the GTT of vehicle and Lac-Phe treated obese mice.

[2] = 7-day comparison of Lac-Phe with lactate and phenylalanine in DIO mice; type: in vivo; conditions: 50 mg/kg IP daily, 13-week male DIO mice
Description: as §2

[3] = Acute Lac-Phe administration to DIO mice in metabolic chambers; type: in vivo; conditions: single 50 mg/kg IP
Description: as §2

[4] = system: SF1-positive neurons of the ventromedial hypothalamic nucleus (VMH); test: Whole-cell patch-clamp slice electrophysiology, SF1 neurons; type: cell-based, mice; conditions: 50 μM
Description: (§3) Slice electrophysiology studies. Several genetic mouse strains were used for electrophysiological recordings from identified neural populations. These included AgRP-IRES-Cre/Rosa26-LSL-tdTOMATO mice for recordings from AgRP neurons in the arcuate nucleus of hypothalamus (ARH); POMC-CreER/Rosa26-LSL-tdTOMATO mice (with 200 mg/kg tamoxifen induction at 8-12 weeks) were used for recordings from POMC neurons in the ARH; SF1-Cre/Rosa26-LSL-tdTOMATO mice were used for recordings from SF1 neurons in the ventromedial hypothalamus (VMH); TPH2-CreER/Rosa26-LSL-tdTOMATO mice (with 200 mg/kg tamoxifen induction at 8-12 weeks) were used for recording from 5-HT neurons in the dorsal raphe nucleus (DRN). […]
(§4) Slices were transferred to the recording chamber at 32° C. and perfused continuously with oxygenated ACSF at a flow rate of 1.8-2.0 ml/min. […] Recordings were made using a MultiClamp 700B amplifier (Axon Instruments), sampled using Digidata 1440A, and analyzed offline with pClamp 10.3 software (Axon Instruments). Series resistance was monitored during the recording, and the values were generally <10 MO and were not compensated. The liquid junction potential was monitored and corrected. […] Each neuron was recorded for at least 1 minute at baseline and only the neurons with stable baseline were used to test the Lac-Phe treatment. […]

[5] = system: AgRP neurons in the arcuate nucleus of hypothalamus (ARH); test: Whole-cell patch-clamp slice electrophysiology, AgRP neurons; type: cell-based, mice
Description: Slice electrophysiology studies. Several genetic mouse strains were used for electrophysiological recordings from identified neural populations. These included AgRP-IRES-Cre/Rosa26-LSL-tdTOMATO mice for recordings from AgRP neurons in the arcuate nucleus of hypothalamus (ARH); POMC-CreER/Rosa26-LSL-tdTOMATO mice (with 200 mg/kg tamoxifen induction at 8-12 weeks) were used for recordings from POMC neurons in the ARH; SF1-Cre/Rosa26-LSL-tdTOMATO mice were used for recordings from SF1 neurons in the ventromedial hypothalamus (VMH); TPH2-CreER/Rosa26-LSL-tdTOMATO mice (with 200 mg/kg tamoxifen induction at 8-12 weeks) were used for recording from 5-HT neurons in the dorsal raphe nucleus (DRN). Mice (males and females, 8-16 weeks old) were anesthetized with isoflurane and transcardially perfused with a modified ice-cold sucrose-based cutting solution (pH 7.4; containing 10 mM NaCl, 25 mM NaHCO3, 195 mM sucrose, 5 mM glucose, 2.5 mM KCl, 1.25 mM NaH2PO4, 2 mM sodium pyruvate, 0.5 mM CaCl2, and 7 mM MgCl2, bubbled continuously with 95% O2 and 5% CO2). The mice were then decapitated, and the entire brain was removed and immediately submerged in the cutting solution. Coronal slices (220 μm) were cut with a Microm HM 650V vibratome (Thermo Scientific). Brain slices containing the desired region (ARH, VMH, or DRN) were collected for each corresponding mouse, and recordings were made at levels throughout this brain region. The slices were recovered for ˜30 minutes at 32° C. and then maintained at room temperature for another 1 hour in oxygenated (95% O2 and 5% CO2) artificial cerebrospinal fluid (ACSF, pH 7.4; containing 126 mM NaCl, 2.5 mM KCl, 2.4 mM CaCl2, 1.2 mM NaH2PO4, 1.2 mM MgCl2, 11.1 mM glucose, and 21.4 mM NaHCO3) before recording.
as §1

[6] = Plasma Lac-Phe level after intraperitoneal injection; type: in vivo; conditions: C57BL/6J DIO, mouse, 50 mg/kg IP, DIO mice, mean±SEM, read-out: plasma levels 30 min post injection
Description: as §2, with “mice. […]” for “mice.”

[7] = system: serotonin (5-HT)-positive neurons in the dorsal raphe nuclei (DRN); test: Whole-cell patch-clamp slice electrophysiology, 5-HT neurons; type: cell-based, mice; conditions: 50 μM
Description: as §3, §4

[8] = 9-day Lac-Phe treatment of 18 week DIO mice (FIG. 17); type: in vivo; conditions: 50 mg/kg/day IP
Description: as §2

RAW264.7 cells = test: In vitro Lac-Phe production assay with added lactate, RAW264.7; type: cell-based, murine; conditions: lactate 25 mM in conditioned media
Description: Cell line cultures. All cell lines were obtained from ATCC and grown at 37° C. with 5% CO2. RAW 264.7, HEK293T, HEK293A, C2C12, F442A, 3T3-L1, Caco2, and SW48 were grown in Dulbecco's modified Eagle's medium (DMEM) with 10% fetal bovine serum (FBS) and penicillin/streptomycin (pen/strep). AML-12 cells were grown in DMEM with 10% FBS and pen/strep supplemented with Insulin-Transferrin-Selenium. T84 cells were grown in Dulbecco's modified Eagle's medium/nutrient mixture F-12 (DMEM/F-12) with 5% FBS and pen/strep.
In vitro Lac-Phe Production assay. Cells were plated in 12-well plates at 70-80% confluence. The next day, cells were washed two times with PBS and incubated in 0.5 ml serum free media. After overnight incubation, 400 μl of media was removed and 20 μl of 1 M hydrochloride added to acidify the media and protonate Lac-Phe. 400 μl of ethyl acetate was added into each sample and vortexed for 30 seconds to extract Lac-Phe into the organic layer. 300 μl from the top layer was transferred to a new Eppendorf tube and dried down under a stream of nitrogen. The residue was re-suspended in 100 ul of an 80:20 mixture of acetonitrile/water. Cells were kept on ice to harvest the lysate. 150 μl of PBS was added into each well and the cells scraped into an Eppendorf tube. This step was repeated again to ensure all cells have been harvested. […]

[9] = system: primary peritoneal macrophages; test: In vitro Lac-Phe production assay with added lactate, primary macrophages; type: cell-based, mice; conditions: lactate 25 mM in conditioned media
Description: Primary peritoneal macrophage isolation. Mice were injected with 2 ml of 3% brewer thioglycollate medium (Fisher, B111716) and the macrophage elicitation allowed to proceed for 3 days. For the macrophage isolation, mice were euthanized with CO2 and the abdominal skin peeled back to expose the peritoneal wall. 10 ml of ice-cold calcium and magnesium free DPBS was injected into the peritoneal cavity, taking care not to puncture the organs. The mice were gently massaged and the fluid aspirated from the peritoneum using the same syringe and needle. The fluid was dispensed into a 50 ml falcon tube on ice. Cells were then centrifuged at 4° C. for 10 minutes at 400×g. The supernatant was discarded and the cells re-suspended in cold DMEM/F-12 containing 10% FBS and pen/strep. Cells were allowed to adhere in the incubator for at least 2 hours then washed three times in warm PBS to remove non-adherent cells. Fresh media was added to the cells and experiments performed within 1-2 days after the isolation.
In vitro Lac-Phe Production assay. Cells were plated in 12-well plates at 70-80% confluence. The next day, cells were washed two times with PBS and incubated in 0.5 ml serum free media. After overnight incubation, 400 μl of media was removed and 20 μl of 1 M hydrochloride added to acidify the media and protonate Lac-Phe. […]

[10] = 50 mg/kg/day IP, 10 days, DIO mice

## C[C@H](O)C(=O)N[C@@H](Cc1ccccc1)C(=O)O [Lac-Phe, N-lactoyl-phenylalanine]
POMC neurons in the ARH; 50 μM
  effect on POMC neurons (firing frequency, depolarization): rapidly activate
POMC neurons in the ARH; 50 μM with inhibitor cocktail
  depolarization of POMC neurons in presence of inhibitor cocktail: persisted
POMC neurons in the ARH; dose response
  concentration required to activate POMC neurons: at least 20 μM
[1]; [10]
  brown fat (BAT) mass vs vehicle: −41%
  change in total body weight: −7%
  epididymal fat (eWAT) mass vs vehicle: −20%
  subcutaneous inguinal fat (iWAT) mass vs vehicle: −41%
  total lean mass, estimated by weights of other organs: unaffected
[1]; 50 mg/kg/day IP, 10 days, DIO mice, mean±SEM
  reduction in body weight: -2.8 ± 1.1 g
[1]; 50 mg/kg/day IP, 10 days, DIO mice, mean±SEM (vehicle 2.9±0.1)
  food intake, chronic treatment: 2.1±0.1 g/mouse/day
[1]; day 10, 1 g/kg glucose, 6 h fast, vs vehicle
  glucose tolerance test: improved glucose clearance
[2]
  body weight vs control: suppressed
  food intake vs control: suppressed
[3]; 12 h post-administration
  suppression of food intake compared to vehicle-treated mice: 52%
[3]; 12 hr
  carbon dioxide production (VCO2): did not alter
  oxygen consumption (VO2): did not alter
  respiratory exchange ratio (RER): did not alter
[3]; mean±SEM (vehicle 6.4±0.6)
  food intake over 12 h post-administration: 3.0±1.0 kcal/mouse
[3]; vs vehicle
  ambulatory activity: not different between groups
[4]
  excitability of SF1-positive neurons: No effect
[5]; 50 μM
  effect on AgRP neurons (firing frequency, resting membrane potential): rapidly inhibited
[5]; 50 μM with inhibitor cocktail
  hyperpolarization of AgRP neurons in presence of TTX, DNQX, D-AP5, bicuculline: persisted
[5]; all concentrations tested, baseline or inhibitor-treated
  AgRP neurons hyperpolarized (response ratio): > 70%
[5]; dose response, lowest active concentration
  concentration showing inhibitory activity on AgRP neurons: ≥ 1 µM
[6]
  concentration at 30 min: 3.8 µM
[7]
  excitability of 5-HT-positive neurons: No effect
[8]; 1 g/kg glucose, 6 h fast
  glucose homeostasis (glucose tolerance test): improves glucose homeostasis
[8]; 9-day, 18 week male DIO mice
  body weight: suppresses
[8]; 18 week male DIO mice
  appetite (cumulative food intake): suppresses

## C[C@H](O)C(=O)[O-].[Na+] [lactate, sodium L-lactate]
RAW264.7 cells
  increase of extracellular levels of Lac-Phe: +85%
[9]
  increase of extracellular levels of Lac-Phe: +200%
[2]
  body weight vs control: identical to vehicle treated mice
  food intake vs control: identical to vehicle treated mice

## N[C@@H](Cc1ccccc1)C(=O)O [phenylalanine, L-Phenylalnine]
[2]
  body weight vs control: identical to vehicle treated mice
  food intake vs control: identical to vehicle treated mice
